From US20160289186A1, “FLUOROMETHYL-SUBSTITUTED PYRROLE CA[…]” (Grunenthal GmbH, priority 2013, published 2016)

Each compound was assayed against T1, Human CaV2.2 channels (Homo sapiens, UniProt Q00975) (assay: Fluorescent (FLIPR) assay for CaV2.2 channels using potassium depolarization to induce channel opening). Conditions: 3 μM compound; 30 mM KCl assay buffer (inactivated channel state); HEK293 cells stably expressing human CaV2.2.
T1 construct: expressed in transfected cells; host or cells: HEK293
Format: cell-based
Excerpt: In the process, the Ca^2+ influx is quantified in the FLIPR assay with the aid of a Ca^2+-sensitive dye (type Fluo-4, Molecular Probes Europe BV, Leiden, the Netherlands) in a fluorescent imaging plate reader (FLIPR 3, Molecular Devices, Sunnyvale, USA), as described hereinafter.
Human CaV2.2 channels were stably expressed in HEK293 cells together with alpha2-delta and beta subunits of voltage gated calcium channels. In addition, an inwardly rectifying potassium channel (Kir2.3) was stably expressed in these cells to augment control of the cell membrane potential by the concentration of extracellular potassium ions. Raise of the extracellular potassium concentration leads to depolarization of the membrane potential and thus regulates the voltage dependent state of CaV2.2 channels. For preparation, cells were seeded in black poly-D-lysine coated 96-well plates (Becton Dickinson, Biocoat 4640) in 100 μL medium [500 mL DMEM/F-12 plus Glutamax (Invitrogen 31331-093) plus 5.5 mL MEM NEAA 100× (Invitrogen 11140-035) plus 50 mL FBS decomplemented (Invitrogen 10270-106) plus 200 μg/mL Geneticin (Invitrogen 10131-027) plus 50 μg/mL Hygromycin B (Invitrogen 10687-010) plus 2 μg/mL Blasticidin (anti-bl5b Invivo-Gen) plus 0.2 μg/mL Puromycin (A 11138-03)] at a cell density of 30.000 cells per well. Plates were incubated at 37° C. (5% CO2) for 20 to 23 h. On the day of experiment medium was discarded and cells were loaded with Fluo 4 by addition of 100 μL of basic assay buffer (10 mM HEPES, 1 mM KCl, 149 mM NaCl, 0.8 mM CaCl2, 1.7 mM MgCl2, 10 mM Glucose, 0.1% BSA. pH 7.4) containing 2 μM Fluo 4 (Molecular Probes; F-14201), 0.01% pluronic acid (Molecular Probes; P-6866) and 2.5 mM probenecid (Molecular Probes; P36400). Cells were incubated in the dark at 25° C. for 60 min. Then dye containing buffer was discarded and 100 μL basic (1 mM KCl) or alternative (30 mM KCl) assay buffer was added. The alternative assay buffer contained altered concentrations of KCl (30 mM) and NaCl (120 mM) and was used in order to promote the inactivated channel state. After that 25 μL of basic or alternative assay buffer with or without test compound were added and cells were incubated again in the dark at 25° C. for 15 min. Fluorescence intensity was measured on a FLIPR 3 instrument (Molecular Devices Corp., Sunnyvale, Calif.) with excitation at 480 nm and emission at 535 nm. After continuously reading fluorescence for 30 sec, 50 μL of basic assay buffer containing 210 mM KCl (NaCl omitted) were added for depolarization. Peak fluorescent signal intensity was determined and the amplitude of the peak signal, normalized to base line, was used to measure channel inhibition by test compounds.

T1 sequence (Q00975 whole entry): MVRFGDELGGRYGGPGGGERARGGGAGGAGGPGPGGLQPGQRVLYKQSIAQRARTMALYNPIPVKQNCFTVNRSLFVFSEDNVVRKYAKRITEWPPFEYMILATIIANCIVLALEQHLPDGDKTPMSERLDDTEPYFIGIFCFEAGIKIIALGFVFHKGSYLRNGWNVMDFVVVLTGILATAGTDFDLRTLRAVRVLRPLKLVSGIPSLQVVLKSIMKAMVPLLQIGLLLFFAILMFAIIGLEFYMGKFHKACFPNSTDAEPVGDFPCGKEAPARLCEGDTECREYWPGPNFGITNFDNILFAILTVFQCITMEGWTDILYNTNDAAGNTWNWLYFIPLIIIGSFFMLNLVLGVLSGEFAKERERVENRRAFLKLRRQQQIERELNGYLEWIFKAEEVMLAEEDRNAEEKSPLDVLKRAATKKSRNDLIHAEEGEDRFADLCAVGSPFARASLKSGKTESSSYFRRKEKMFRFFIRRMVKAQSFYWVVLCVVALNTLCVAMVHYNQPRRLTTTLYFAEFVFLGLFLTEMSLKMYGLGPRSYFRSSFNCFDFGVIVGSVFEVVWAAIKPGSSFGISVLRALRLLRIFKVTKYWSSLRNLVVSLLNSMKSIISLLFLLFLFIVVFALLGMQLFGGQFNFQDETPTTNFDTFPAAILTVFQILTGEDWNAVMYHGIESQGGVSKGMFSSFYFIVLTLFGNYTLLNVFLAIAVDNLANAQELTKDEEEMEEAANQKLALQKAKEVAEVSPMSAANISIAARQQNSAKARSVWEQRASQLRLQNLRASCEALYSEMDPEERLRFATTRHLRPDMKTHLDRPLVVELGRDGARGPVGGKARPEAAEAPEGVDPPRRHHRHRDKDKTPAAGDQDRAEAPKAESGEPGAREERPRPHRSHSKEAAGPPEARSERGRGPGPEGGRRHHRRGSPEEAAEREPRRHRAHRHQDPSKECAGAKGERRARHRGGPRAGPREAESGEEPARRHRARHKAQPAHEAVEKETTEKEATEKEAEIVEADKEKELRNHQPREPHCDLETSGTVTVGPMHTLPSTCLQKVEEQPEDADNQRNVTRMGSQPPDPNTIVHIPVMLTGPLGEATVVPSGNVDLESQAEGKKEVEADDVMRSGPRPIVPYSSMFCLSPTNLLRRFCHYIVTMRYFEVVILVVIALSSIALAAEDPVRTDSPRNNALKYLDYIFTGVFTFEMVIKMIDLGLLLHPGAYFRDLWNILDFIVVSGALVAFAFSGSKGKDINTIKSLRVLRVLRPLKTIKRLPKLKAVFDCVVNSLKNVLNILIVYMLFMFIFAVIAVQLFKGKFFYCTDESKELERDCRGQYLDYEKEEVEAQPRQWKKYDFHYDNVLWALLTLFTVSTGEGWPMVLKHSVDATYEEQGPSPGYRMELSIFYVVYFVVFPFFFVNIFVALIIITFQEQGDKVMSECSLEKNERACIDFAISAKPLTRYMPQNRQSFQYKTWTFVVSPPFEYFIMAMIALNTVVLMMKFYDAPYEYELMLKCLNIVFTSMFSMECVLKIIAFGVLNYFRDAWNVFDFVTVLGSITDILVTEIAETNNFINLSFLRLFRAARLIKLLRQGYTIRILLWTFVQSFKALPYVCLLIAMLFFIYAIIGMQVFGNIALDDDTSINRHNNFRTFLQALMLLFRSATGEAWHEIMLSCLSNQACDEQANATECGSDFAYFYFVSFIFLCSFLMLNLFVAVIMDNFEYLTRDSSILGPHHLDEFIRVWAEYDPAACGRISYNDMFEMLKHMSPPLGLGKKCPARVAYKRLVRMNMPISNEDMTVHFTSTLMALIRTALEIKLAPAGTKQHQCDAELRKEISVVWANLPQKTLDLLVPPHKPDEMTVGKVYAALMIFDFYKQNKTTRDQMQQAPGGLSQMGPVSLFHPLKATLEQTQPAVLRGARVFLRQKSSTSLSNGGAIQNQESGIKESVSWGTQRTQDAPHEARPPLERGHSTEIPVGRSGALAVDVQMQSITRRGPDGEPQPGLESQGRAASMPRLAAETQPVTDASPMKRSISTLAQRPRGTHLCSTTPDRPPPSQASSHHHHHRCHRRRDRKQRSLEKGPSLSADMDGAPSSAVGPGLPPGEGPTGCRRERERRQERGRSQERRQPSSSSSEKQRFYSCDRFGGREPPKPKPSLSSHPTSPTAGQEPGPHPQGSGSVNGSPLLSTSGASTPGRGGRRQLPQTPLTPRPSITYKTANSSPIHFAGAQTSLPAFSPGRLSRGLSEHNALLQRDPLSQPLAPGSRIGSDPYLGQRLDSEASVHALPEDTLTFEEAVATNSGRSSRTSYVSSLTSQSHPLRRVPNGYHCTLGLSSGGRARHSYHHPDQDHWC
T1 sequence (P54284 whole entry, further chain): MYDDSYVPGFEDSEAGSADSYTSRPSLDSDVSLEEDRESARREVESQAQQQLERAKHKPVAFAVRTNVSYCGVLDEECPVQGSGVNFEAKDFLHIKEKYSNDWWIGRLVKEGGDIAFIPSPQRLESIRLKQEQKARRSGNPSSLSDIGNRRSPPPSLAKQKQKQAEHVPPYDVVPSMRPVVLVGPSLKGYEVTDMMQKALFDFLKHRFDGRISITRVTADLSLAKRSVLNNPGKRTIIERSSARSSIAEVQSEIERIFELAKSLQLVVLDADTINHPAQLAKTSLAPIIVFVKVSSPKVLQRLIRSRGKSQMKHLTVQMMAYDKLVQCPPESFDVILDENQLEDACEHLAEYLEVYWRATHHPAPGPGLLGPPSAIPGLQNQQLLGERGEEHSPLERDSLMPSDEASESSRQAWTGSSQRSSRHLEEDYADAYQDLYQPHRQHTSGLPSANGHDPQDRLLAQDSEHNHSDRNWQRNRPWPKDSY
T1 sequence (P54289 25-1103, further chain): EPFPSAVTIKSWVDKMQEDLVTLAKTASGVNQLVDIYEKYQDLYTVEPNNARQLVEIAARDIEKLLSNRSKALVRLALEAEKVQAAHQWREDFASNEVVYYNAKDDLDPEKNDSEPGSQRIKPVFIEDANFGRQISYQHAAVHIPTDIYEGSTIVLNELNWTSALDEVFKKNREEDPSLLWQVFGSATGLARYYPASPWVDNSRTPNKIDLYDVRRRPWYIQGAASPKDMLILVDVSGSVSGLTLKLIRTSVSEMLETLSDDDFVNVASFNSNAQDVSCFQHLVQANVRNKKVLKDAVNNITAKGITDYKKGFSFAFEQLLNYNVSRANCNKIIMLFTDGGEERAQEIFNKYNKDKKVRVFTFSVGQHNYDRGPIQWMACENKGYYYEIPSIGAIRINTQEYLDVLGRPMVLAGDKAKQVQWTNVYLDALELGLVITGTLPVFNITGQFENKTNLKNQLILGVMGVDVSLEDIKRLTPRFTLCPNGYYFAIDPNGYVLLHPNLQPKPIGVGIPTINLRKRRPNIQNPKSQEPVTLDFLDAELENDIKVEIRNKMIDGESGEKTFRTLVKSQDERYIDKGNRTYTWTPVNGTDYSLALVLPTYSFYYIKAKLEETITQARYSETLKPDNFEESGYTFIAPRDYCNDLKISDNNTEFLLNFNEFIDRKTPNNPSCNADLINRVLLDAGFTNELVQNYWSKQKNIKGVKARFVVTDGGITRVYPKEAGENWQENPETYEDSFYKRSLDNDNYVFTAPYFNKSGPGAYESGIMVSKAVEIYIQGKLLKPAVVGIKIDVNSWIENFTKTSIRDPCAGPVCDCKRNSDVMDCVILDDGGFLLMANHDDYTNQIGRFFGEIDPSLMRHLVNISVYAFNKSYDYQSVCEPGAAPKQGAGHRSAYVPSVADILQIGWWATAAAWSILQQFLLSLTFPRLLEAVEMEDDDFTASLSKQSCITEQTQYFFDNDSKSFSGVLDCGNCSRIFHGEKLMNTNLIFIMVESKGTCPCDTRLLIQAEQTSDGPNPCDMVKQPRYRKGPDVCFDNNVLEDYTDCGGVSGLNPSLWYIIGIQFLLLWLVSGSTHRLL

Compound | Activity Category: %-Inhib (CaV2.2) @3 μM @30 mM KCl
CC(C)Cn1c(C(F)(F)F)cc(-c2ccc(F)cc2)c1C(=O)N(C)Cc1cnc(N(C)C)nc1 [Example 060] | A (%-Inhibition >95%)

Same assay, conditions: 3 μM compound; 30 mM KCl assay buffer (inactivated channel state); HEK293 cells stably expressing human CaV2.2; read-out: Activity Category: %-Inhib (CaV2.2) @3 μM @30 mM KCl

Compound | inhibition at 3 µM [%]
Cc1c(-c2ccc(Cl)cc2)c(C(=O)N(C)C2(C(N)=O)CC2)n(CC(C)C)c1C(F)(F)F [Example 051, N-(1-Carbamoyl-cyclopropyl)-3-(4-chlorophenyl)-N,4-dimethyl-1-(2-methyl-propyl)-5-(trifluoromethyl)-1H-pyrrole-2-carboxylic acid amide] | > 95
Cc1c(-c2ccc(Cl)cc2)c(C(=O)N(C)CC(C)(C)C(N)=O)n(CC(C)C)c1C(F)(F)F [Example 052, N-(2-Carbamoyl-2-methyl-propyl)-3-(4-chlorophenyl)-N,4-dimethyl-1-(2-methyl-propyl)-5-(trifluoromethyl)-1H-pyrrole-2-carboxylic acid amide] | 75 to 95
CC(C)Cn1c(C(F)(F)F)cc(-c2ccc(F)cc2)c1C(=O)N(C)CC(C)(C)C [Example 053, N-(2,2-Dimethyl-propyl)-3-(4-fluorophenyl)-N-methyl-1-(2-methyl-propyl)-5-(trifluoromethyl)-1H-pyrrole-2-carboxylic acid amide] | 40 to 75
CC(C)Cn1c(C(F)(F)F)cc(-c2ccc(F)cc2)c1C(=O)N(C)CC(C)(C)CN1CCOCC1 [Example 054, N-(2,2-Dimethyl-3-morpholin-4-yl-propyl)-3-(4-fluorophenyl)-N-methyl-1-(2-methyl-propyl)-5-(trifluoromethyl)-1H-pyrrole-2-carboxylic acid amide] | 75 to 95
Cc1c(-c2ccc(Cl)cc2)c(C(=O)N(C)CC(C)(C)CO)n(CC(C)C)c1C(F)(F)F [Example 055, 3-(4-Chlorophenyl)-N-(3-hydroxy-2,2-dimethyl-propyl)-N,4-dimethyl-1-(2-methyl-propyl)-5-(trifluoromethyl)-1H-pyrrole-2-carboxylic acid amide] | > 95
CC(C)Cn1c(C(F)(F)F)cc(-c2ccc(F)cc2)c1C(=O)N(C)CC(C)(C)CO [Example 056, 3-(4-Fluorophenyl)-N-(3-hydroxy-2,2-dimethyl-propyl)-N-methyl-1-(2-methyl-propyl)-5-(trifluoromethyl)-1H-pyrrole-2-carboxylic acid amide] | 75 to 95
Cc1cc(CN(C)C(=O)c2c(-c3ccc(Cl)cc3)c(C)c(C(F)(F)F)n2CC(C)C)no1 [Example 057, 3-(4-Chlorophenyl)-N,4-dimethyl-N-[(5-methyl-isoxazol-3-yl)-methyl]-1-(2-methyl-propyl)-5-(trifluoromethyl)-1H-pyrrole-2-carboxylic acid amide] | > 95
CC(C)Cn1c(C(F)(F)F)cc(-c2ccc(F)cc2)c1C(=O)N(C)CC1CCOC1 (centres unmarked) [Example 058, 3-(4-Fluorophenyl)-N-methyl-1-(2-methyl-propyl)-N-(tetrahydro-furan-3-yl-methyl)-5-(trifluoromethyl)-1H-pyrrole-2-carboxylic acid amide] | > 95
Cc1cnc(CN(C)C(=O)c2c(-c3ccc(Cl)cc3)c(C)c(C(F)(F)F)n2CC(C)C)cn1 [Example 059, 3-(4-Chlorophenyl)-N,4-dimethyl-1-(2-methyl-propyl)-N-[(5-methyl-pyrazin-2-yl)-methyl]-5-(trifluoromethyl)-1H-pyrrole-2-carboxylic acid amide] | > 95
Cc1c(-c2ccc(Cl)cc2)c(C(=O)N(C)CCS(C)(=O)=O)n(CC(C)C)c1C(F)(F)F [Example 061, 3-(4-Chlorophenyl)-N,4-dimethyl-1-(2-methyl-propyl)-N-(2-methylsulfonyl-ethyl)-5-(trifluoromethyl)-1H-pyrrole-2-carboxylic acid amide] | > 95
Cc1noc(C2CCN(C(=O)c3c(-c4ccc(Cl)cc4)c(C)c(C(F)(F)F)n3CC(C)C)CC2)n1 [Example 062, [3-(4-Chlorophenyl)-4-methyl-1-(2-methyl-propyl)-5-(trifluoromethyl)-1H-pyrrol-2-yl]-[4-(3-methyl-[1,2,4]oxadiazol-5-yl)-piperidin-1-yl]-methanone] | 75 to 95
CC(C)Cn1c(C(F)(F)F)cc(-c2ccc(F)cc2)c1C(=O)N1CCNC(=O)C1 [Example 063, 4-[3-(4-Fluorophenyl)-1-(2-methyl-propyl)-5-(trifluoromethyl)-1H-pyrrole-2-carbonyl]-piperazin-2-one] | 40 to 75
Cc1c(-c2ccc(Cl)cc2)c(C(=O)N2CCOC(C)(C)C2)n(CC(C)C)c1C(F)(F)F [Example 064, [3-(4-Chlorophenyl)-4-methyl-1-(2-methyl-propyl)-5-(trifluoromethyl)-1H-pyrrol-2-yl]-(2,2-dimethyl-morpholin-4-yl)-methanone] | 75 to 95
CC(C)Cn1c(C(F)(F)F)cc(-c2ccc(F)cc2)c1C(=O)N1CCOCC1 [Example 065, [3-(4-Fluorophenyl)-1-(2-methyl-propyl)-5-(trifluoromethyl)-1H-pyrrol-2-yl]-morpholin-4-yl-methanone] | 75 to 95
CC(C)Cn1c(C(F)(F)F)cc(-c2ccc(F)cc2)c1C(=O)NC1CC1 [Example 066, N-Cyclopropyl-3-(4-fluorophenyl)-1-(2-methyl-propyl)-5-(trifluoromethyl)-1H-pyrrole-2-carboxylic acid amide] | 75 to 95
Cc1c(-c2ccc(Cl)cc2)c(C(=O)N(C)CC(C)(C)C#N)n(CC(C)C)c1C(F)(F)F [Example 067, 3-(4-Chlorophenyl)-N-(2-cyano-2-methyl-propyl)-N,4-dimethyl-1-(2-methyl-propyl)-5-(trifluoromethyl)-1H-pyrrole-2-carboxylic acid amide] | 40 to 75
Cc1c(-c2ccc(Cl)cc2)c(C(=O)N(C)CCS(C)(=O)=O)n(CC2(C)CC2)c1C(F)(F)F [Example 068, 3-(4-Chlorophenyl)-N,4-dimethyl-1-[(1-methyl-cyclopropyl)-methyl]-N-(2-methylsulfonyl-ethyl)-5-(trifluoromethyl)-1H-pyrrole-2-carboxylic acid amide] | > 95
CN(Cc1cnc(N(C)C)nc1)C(=O)c1c(-c2ccc(F)cc2)cc(C(F)(F)F)n1CC1CCCO1 (centres unmarked) [Example 069, N-[(2-Dimethylamino-pyrimidin-5-yl)-methyl]-3-(4-fluorophenyl)-N-methyl-1-(tetrahydro-furan-2-yl-methyl)-5-(trifluoromethyl)-1H-pyrrole-2-carboxylic acid amide] | 75 to 95
CN(C(=O)c1c(-c2ccc(F)cc2)cc(C(F)(F)F)n1CC1CCCO1)C1CCOCC1 (centres unmarked) [Example 070, 3-(4-Fluorophenyl)-N-methyl-1-(tetrahydro-furan-2-yl-methyl)-N-tetrahydro-pyran-4-yl-5-(trifluoromethyl)-1H-pyrrole-2-carboxylic acid amide] | 75 to 95
CN(C(=O)c1c(-c2ccc(F)cc2)cc(C(F)(F)F)n1CC1CCCO1)C1CCS(=O)(=O)C1 (centres unmarked) [Example 071, N-(1,1-Dioxo-thiolan-3-yl)-3-(4-fluorophenyl)-N-methyl-1-(tetrahydro-furan-2-yl-methyl)-5-(trifluoromethyl)-1H-pyrrole-2-carboxylic acid amide] | 40 to 75
CN(CC(C)(C)C)C(=O)c1c(-c2ccc(F)cc2)cc(C(F)(F)F)n1CC1CCCO1 (centres unmarked) [Example 073, N-(2,2-Dimethyl-propyl)-3-(4-fluorophenyl)-N-methyl-1-(tetrahydro-furan-2-yl-methyl)-5-(trifluoromethyl)-1H-pyrrole-2-carboxylic acid amide] | 75 to 95
CN(CC(C)(C)CO)C(=O)c1c(-c2ccc(F)cc2)cc(C(F)(F)F)n1CC1CCCO1 (centres unmarked) [Example 074, 3-(4-Fluorophenyl)-N-(3-hydroxy-2,2-dimethyl-propyl)-N-methyl-1-(tetrahydro-furan-2-yl-methyl)-5-(trifluoromethyl)-1H-pyrrole-2-carboxylic acid amide] | 75 to 95
